This passage reports EC50 results from patent US7566713B2, “Immuno inhibitory heterocyclic compounds” (Medigene Limited, priority 2004, dated 2009).

The assay concerns the target T1, CD80-CD28 interaction (Homo sapiens, UniProt P33681).
T1 sequence (P33681 35-242 limits assumed): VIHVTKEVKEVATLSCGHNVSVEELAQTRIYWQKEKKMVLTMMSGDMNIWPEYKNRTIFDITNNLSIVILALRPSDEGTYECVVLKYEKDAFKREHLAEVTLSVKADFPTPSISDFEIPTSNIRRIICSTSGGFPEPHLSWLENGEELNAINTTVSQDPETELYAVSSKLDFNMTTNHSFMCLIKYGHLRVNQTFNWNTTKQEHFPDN
Briefly: cell free Homogenous Time Resolved Fluorescence (TRFret) assay, inhibition of the CD80-CD28 interaction. To be noted: HTRF assay; concentration series 100 μM-1.7 nM; 4 hours at room temperature. The format is binding. The procedure:
The examples described above were tested in a cell free Homogenous Time Resolved Fluorescence (TRFret) assay to determine their activity as inhibitors of the CD80-CD28 interaction.
In the assay, europium and allophycocyanin (APC) are associated with CD28 and CD80 indirectly (through antibody linkers) to form a complex, which brings the europium and APC into close proximity to generate a signal. The complex comprises the following six proteins: fluorescent label 1, linker antibody 1, CD28 fusion protein, CD80 fusion protein, linker antibody 2, and fluorescent label 2. The table below describes these reagents in greater detail.
On formation of the complex, europium and APC are brought into proximity and a signal is generated.
Non-specific interaction was measured by substituting a mouse Fab fragment (C215) for the CD80 mouse Fab fragment fusion protein (1.9 μg/ml). The assay was carried out in black 384 well plates in a final volume of 30 μl. Assay buffer: 50 mM Tris-HCl, 150 mM NaCl pH7.8, containing 0.1% BSA (w/v) added just prior to use.
Compounds were added to the above reagents in a concentration series ranging between 100 μM-1.7 nM. The reaction was incubated for 4 hours at room temperature. Dual measurements were made using a Wallac Victor 1420 Multilabel Counter. First measurement: excitation 340 nm, emission 665 nm, delay 50 μs, window time 200 μs. second measurement: excitation 340 nm, emission 615 nm, delay 50 μs, window time 200 μs. Counts were automatically corrected for fluorescence crossover, quenching and background.

Consider `CN(C)CCCNC(=O)c1ccc(-n2[nH]c3c4c(nnc3c2=O)CCCC4)cc1` [Example 2, N-(3-Dimethylamino-propyl)-4-(3-oxo-1,3,6,7,8,9-hexahydro-pyrazolo[4,3-c]cinnolin-2-yl)-benzamide], for which the EC50 was 0.063 µM.
In turn, `O=C(NCCCCN1CCCC1)c1ccc(-n2[nH]c3c4c(nnc3c2=O)CCCC4)cc1` [Example 5, 4-(3-Oxo-1,3,6,7,8,9-hexahydro-pyrazolo[4,3-c]cinnolin-2-yl)-N-(4-pyrrolidin-1-yl-butyl)-benzamide] yielded an EC50 of 0.06 µM.
For the molecule `O=C(NCCCNC1CCCCC1)c1ccc(-n2[nH]c3c4c(nnc3c2=O)CCCC4)cc1` [Example 4, N-(3-Cyclohexylamino-propyl)-4-(3-oxo-1 ,3,6,7,8,9-hexahydro-pyrazolo[4,3-c]cinnolin-2-yl)-benzamide], the midpoint of the response, the EC50, lay at 0.101 µM.
To `O=C(O)c1ccc(-n2[nH]c3c4c(nnc3c2=O)CCCC4)cc1` [Example 1] belongs more than 10 µM.
With `O=C(NCC(F)F)c1ccc(-n2[nH]c3c4c(nnc3c2=O)CCCC4)cc1` [Example 3, N-(2,2-Difluoro-ethyl)-4-(3-oxo-1 ,3,6,7,8,9-hexahydro-pyrazolo[4,3-c]cinnolin-2-yl)-benzamide] the figure was 0.79 µM; with `CN1C(C)(C)CC(NC(=O)c2ccc(-n3[nH]c4c5c(nnc4c3=O)CCCC5)cc2)CC1(C)C` [Example 6, 4-(3-Oxo-1,3,6,7,8,9-hexahydro-pyrazolo[4,3-c]cinnolin-2-yl)-N-(1,2,2,6,6-pentamethyl-piperidin-4-yl)-benzamide], 0.093 µM.

A word on the EC50: it is the concentration at which the effect is half-maximal. Lower therefore signals a more potent agent.
